Paper PMC11396751, “Design, Synthesis, and Anticancer Activity of Novel Enmein-Type Diterpenoid Derivatives Targeting the PI3K/Akt/mTOR Signaling Pathway” (Molecules, 2024)

How the values were obtained:
A549 cells = test: MTT anti-proliferative assay, A549; type: cell-based, human; conditions: for IC50: Homo sapiens, A549, MTT, 48 h, means ± SD of three experiments
Procedure: (§1) A series of novel enmein-type diterpenoid derivatives, 5a–m, were synthesized by introducing a side chain containing a carbamate moiety at the C-6 position of compound 4. The anticancer activities of 5a–m were tested against three human cancer cell lines and one human normal cell line by MTT assay.
(§2) Human non-small cell lung cancer cell lines (A549), human liver cancer cell lines (HepG2), human breast cancer cell lines (MCF-7), and human normal cell lines (L-02) were purchased from the cell bank of the Chinese Academy of Sciences. All cells were placed in RPMI-1640 medium (added 10% fetal bovine serum, […]) and cultured in an aseptic environment with 5% CO2 at 37 °C.
(§3) All derivatives were evaluated for their anti-proliferative activities against three cancer cell lines and one normal cell line by MTT assay. The cells in the logarithmic growth phase were inoculated into 96-well plates (3 × 10^3 cells/well) and incubated for 48 h in a sterile environment with 5% CO2 at 37 °C to make them attach via cell adhesion; then, the cells were co-incubated with target compounds for 48 h. After that, MTT solution (10 µL/well) was added to the cell culture medium to continue incubation for 4 h, following which the medium was replaced with DMSO (150 µL/well). The absorbance values at 490 nm were determined using an enzyme meter (Safire 2, Tecan, Männedorf, Switzerland) and further converted to half-inhibitory concentration values of these compounds.

MCF-7 cells = test: MTT anti-proliferative assay, MCF-7; type: cell-based; conditions: Homo sapiens, MCF7, 48 h, means ± SD of three experiments
Procedure: as §1, §2, §3

HepG2 cells = test: MTT anti-proliferative assay, HepG2; type: cell-based, human; conditions: for IC50: Homo sapiens, HepG2, MTT, 48 h, means ± SD of three experiments
Procedure: as §1, §2, §3

L-02 cells = test: MTT anti-proliferative assay, normal L-02 cells; type: cell-based; conditions: means ± SD of three experiments
Procedure: as §1, §2, §3

SMILES	IC50 (A549 cells)	IC50 (MCF-7 cells)	IC50 (HepG2 cells)	IC50 (L-02 cells; Homo sapiens, L02, 48 h)	IC50 (L-02 cells; L02, human normal cells, 48 h)	fold better than parental compound 4 (A549 IC50) (A549 cells; A549 cells)	anticancer activity in words, HepG2 (HepG2 cells; HepG2 cells)
C=C1C(=O)C23C(=O)OC45CCC(C)(C)C6C(O)OCC64C2CCC1C3O5 (single isomer, unassigned; ent-6) [Compound 4, Ent-6β,14α-Dihydroxy-(1,7–1,14)-epoxy-7,15-dioxo-6,20-hemiketal-6,7-seco-16-kaurene]	23.8 ± 1.86 µM	25.8 ± 1.14 µM	27.4 ± 0.83 µM	30.2 ± 1.58 µM			
C=C1C(=O)C23C(=O)OC45CCC(C)(C)C6C(OC(=O)N(C)C)OCC64C2CCC1C3O5 (single isomer, unassigned; ent-6) [Compound 5a, ent-6β,14α-Dihydroxy-(1,7–1,14)-epoxy-7,15-dioxo-6,20-hemiketal-6,7-seco-16-kaurene-6β-yl dimethylcarbamate]	14.7 ± 1.54 µM	30.7 ± 1.16 µM	17.1 ± 1.39 µM	> 50 µM			
C=C1C(=O)C23C(=O)OC45CCC(C)(C)C6C(OC(=O)N(CC)CC)OCC64C2CCC1C3O5 (single isomer, unassigned; ent-6) [Compound 5b, ent-6β,14α-Dihydroxy-(1,7–1,14)-epoxy-7,15-dioxo-6,20-hemiketal-6,7-seco-16-kaurene-6β-yl diethylcarbamate]	15.8 ± 1.5 µM	17.6 ± 2.4 µM	15.2 ± 1.58 µM	> 50 µM			
C=C1C(=O)C23C(=O)OC45CCC(C)(C)C6C(OC(=O)N(C)CC)OCC64C2CCC1C3O5 (single isomer, unassigned; ent-6) [Compound 5c, ent-6β,14α-Dihydroxy-(1,7–1,14)-epoxy-7,15-dioxo-6,20-hemiketal-6,7-seco-16-kaurene-6β-yl ethyl(methyl)carbamate]	20.2 ± 1.46 µM	21.9 ± 2.72 µM	22.5 ± 3.42 µM	> 50 µM			
C=C1C(=O)C23C(=O)OC45CCC(C)(C)C6C(OC(=O)N(CCCl)CCCl)OCC64C2CCC1C3O5 (single isomer, unassigned; ent-6) [Compound 5d, ent-6β,14α-Dihydroxy-(1,7–1,14)-epoxy-7,15-dioxo-6,20-hemiketal-6,7-seco-16-kaurene-6β-yl bis(2-chloroethyl) carbamate]	8.76 ± 1.56 µM	15.6 ± 1.61 µM	11 ± 1.45 µM		30.4 ± 3.44 µM		
C=C1C(=O)C23C(=O)OC45CCC(C)(C)C6C(OC(=O)N7CCCC7)OCC64C2CCC1C3O5 (single isomer, unassigned; ent-6) [Compound 5f, ent-6β,14α-Dihydroxy-(1,7–1,14)-epoxy-7,15-dioxo-6,20-hemiketal-6,7-seco-16-kaurene-6β-yl pyrrolidine-1-carboxylate]	13.4 ± 2.19 µM	20.7 ± 1.2 µM	18.3 ± 1.36 µM	45.9 ± 2.3 µM			
C=C1C(=O)C23C(=O)OC45CCC(C)(C)C6C(OC(=O)N7CCCCC7)OCC64C2CCC1C3O5 (single isomer, unassigned; ent-6) [Compound 5g, ent-6β,14α-Dihydroxy-(1,7–1,14)-epoxy-7,15-dioxo-6,20-hemiketal-6,7-seco-16-kaurene-6β-yl piperidine-1-carboxylate]	15.3 ± 2.4 µM	22.8 ± 2.13 µM	21.1 ± 2.5 µM	> 50 µM			
C=C1C(=O)C23C(=O)OC45CCC(C)(C)C6C(OC(=O)N7CCCCCC7)OCC64C2CCC1C3O5 (single isomer, unassigned; ent-6) [Compound 5h, ent-6β,14α-Dihydroxy-(1,7–1,14)-epoxy-7,15-dioxo-6,20-hemiketal-6,7-seco-16-kaurene-6β-yl azepane-1-carboxylate]	18.4 ± 1.13 µM	24 ± 2.55 µM	20.2 ± 1.33 µM	> 50 µM			
C=C1C(=O)C23C(=O)OC45CCC(C)(C)C6C(OC(=O)CCC(=O)NCc7ccccc7)OCC64C2CCC1C3O5 (single isomer, unassigned; ent-6) [Compound 7a, ent-6β,14α-Dihydroxy-(1,7–1,14)-epoxy-7,15-dioxo-6,20-hemiketal-6,7-seco-16-kaurene-6β-yl 4-(benzylamino)-4-oxobutanoate]	10.2 ± 1.1 µM	10.8 ± 1.65 µM	13.8 ± 2.19 µM		> 50 µM		

Continued, in another order:

IC50 (A549 cells)	IC50 (MCF-7 cells)	IC50 (HepG2 cells)	SMILES	IC50 (L-02 cells; Homo sapiens, L02, 48 h)	IC50 (L-02 cells; L02, human normal cells, 48 h)	fold better than parental compound 4 (A549 IC50) (A549 cells; A549 cells)	anticancer activity in words, HepG2 (HepG2 cells; HepG2 cells)
14.4 ± 1.42 µM	25.1 ± 3.34 µM	23.7 ± 3.4 µM	C=C1C(=O)C23C(=O)OC45CCC(C)(C)C6C(OC(=O)N7CCOCC7)OCC64C2CCC1C3O5 (single isomer, unassigned; ent-6) [Compound 5i, ent-6β,14α-Dihydroxy-(1,7–1,14)-epoxy-7,15-dioxo-6,20-hemiketal-6,7-seco-16-kaurene-6β-yl bmorpholine-4-carboxylate]	38.1 ± 2.82 µM			
23.3 ± 2.25 µM	32.8 ± 2.95 µM	34.1 ± 3.52 µM	C=C1C(=O)C23C(=O)OC45CCC(C)(C)C6C(OC(=O)N(c7ccccc7)c7ccccc7)OCC64C2CCC1C3O5 (single isomer, unassigned; ent-6) [Compound 5j, ent-6β,14α-Dihydroxy-(1,7–1,14)-epoxy-7,15-dioxo-6,20-hemiketal-6,7-seco-16-kaurene-6β-yl diphenylcarbamate]	> 50 µM			
17.2 ± 1.43 µM	26.3 ± 2.3 µM	25.7 ± 2.16 µM	C=C1C(=O)C23C(=O)OC45CCC(C)(C)C6C(OC(=O)N7c8ccccc8Sc8ccccc87)OCC64C2CCC1C3O5 (single isomer, unassigned; ent-6) [Compound 5k, ent-6β,14α-Dihydroxy-(1,7–1,14)-epoxy-7,15-dioxo-6,20-hemiketal-6,7-seco-16-kaurene-6β-yl 10H-phenothiazine-10-carboxylate]	> 50 µM			
8.3 ± 2.55 µM	15.9 ± 1.9 µM	11.2 ± 1.82 µM	C=C1C(=O)C23C(=O)OC45CCC(C)(C)C6C(OC(=O)CCn7cccc7)OCC64C2CCC1C3O5 (single isomer, unassigned; ent-6) [Compound 5l, ent-6β,14α-Dihydroxy-(1,7–1,14)-epoxy-7,15-dioxo-6,20-hemiketal-6,7-seco-16-kaurene-6β-yl 3-(1H-pyrrol-1-yl) propanoate]	> 50 µM			
6.85 ± 1.68 µM	12.3 ± 1.11 µM	10.9 ± 1.25 µM	C=C1C(=O)C23C(=O)OC45CCC(C)(C)C6C(OC(=O)CCN7C(=O)c8ccccc8C7=O)OCC64C2CCC1C3O5 (single isomer, unassigned; ent-6) [Compound 5m, ent-6β,14α-Dihydroxy-(1,7–1,14)-epoxy-7,15-dioxo-6,20-hemiketal-6,7-seco-16-kaurene-6β-yl 3-(1,3-dioxoisoindolin-2-yl) propanoate]	32.5 ± 1.62 µM		3.48 fold	
7.48 ± 1.31 µM	12.8 ± 1.64 µM	10.5 ± 1.68 µM	C=C1C(=O)C23C(=O)OC45CCC(C)(C)C6C(OC(=O)CCC(=O)NCc7ccc(C)cc7)OCC64C2CCC1C3O5 (single isomer, unassigned; ent-6) [Compound 7b, ent-6β,14α-Dihydroxy-(1,7–1,14)-epoxy-7,15-dioxo-6,20-hemiketal-6,7-seco-16-kaurene-6β-yl 4-((4-methylbenzyl)amino)-4-oxobutanoate]	> 50 µM			
8.37 ± 1.53 µM	8.35 ± 1.96 µM	12.8 ± 1.73 µM	C=C1C(=O)C23C(=O)OC45CCC(C)(C)C6C(OC(=O)CCC(=O)NCc7ccc(OC)cc7)OCC64C2CCC1C3O5 (single isomer, unassigned; ent-6) [Compound 7c, ent-6β,14α-Dihydroxy-(1,7–1,14)-epoxy-7,15-dioxo-6,20-hemiketal-6,7-seco-16-kaurene-6β-yl 4-((4-meth0xybenzyl)amino)-4-oxobutanoate]	34.4 ± 4.37 µM			
6.41 ± 1.9 µM	7.64 ± 2.52 µM	11.5 ± 1.58 µM	C=C1C(=O)C23C(=O)OC45CCC(C)(C)C6C(OC(=O)CCC(=O)NCc7ccc(C(C)(C)C)cc7)OCC64C2CCC1C3O5 (single isomer, unassigned; ent-6) [Compound 7d, ent-6β,14α-Dihydroxy-(1,7–1,14)-epoxy-7,15-dioxo-6,20-hemiketal-6,7-seco-16-kaurene-6β-yl 4-((4-(tert-butyl)benz-yl)amino)-4-oxobutanoate]	35.7 ± 2.66 µM			
7.12 ± 1.52 µM	9.85 ± 1.53 µM	11.6 ± 1.34 µM	C=C1C(=O)C23C(=O)OC45CCC(C)(C)C6C(OC(=O)CCC(=O)NCc7ccc(F)cc7)OCC64C2CCC1C3O5 (single isomer, unassigned; ent-6) [Compound 7e, ent-6β,14α-Dihydroxy-(1,7–1,14)-epoxy-7,15-dioxo-6,20-hemiketal-6,7-seco-16-kaurene-6β-yl 4-((4-fluorobenzyl)amino)-4-oxobutanoate]	> 50 µM			
7.38 ± 0.96 µM	8.2 ± 1.21 µM	8.61 ± 1.14 µM	C=C1C(=O)C23C(=O)OC45CCC(C)(C)C6C(OC(=O)CCC(=O)NCc7ccc(Cl)cc7)OCC64C2CCC1C3O5 (single isomer, unassigned; ent-6) [Compound 7f, ent-6β,14α-Dihydroxy-(1,7–1,14)-epoxy-7,15-dioxo-6,20-hemiketal-6,7-seco-16-kaurene-6β-yl 4-((4-chlorobenzyl)amino)-4-oxobutanoate]	> 50 µM			low micro-molar-level anticancer activities
